Results reported in ChEMBL document CHEMBL1201862, “PubChem BioAssay data set” (2004).
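Dose response: 5 concentrations. Exposure: 48 h. Format: 96-well plates. Endpoint: linear interpolation; highest concentration if not reached. Abbreviation: GI50, concentration required for 50% inhibition of growth.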 Active and inactive are the calls of the source. Rule as the data show it: active = GI50 up to about 1.1 µM and inactive = higher.

How the values were obtained:
Experiment in all cases: NCI tumour cell line growth inhibition, 48 h
A498 = system: A498
BT-549 = system: BT-549
COLO 205 = system: COLO 205
EKVX = system: EKVX
HCT-116 = system: HCT-116
Hs-578T = system: Hs-578T
IGROV-1 = system: IGROV-1
KM12 = system: KM12
M14 = system: M14
MDA-MB-231 = system: MDA-MB-231
NCI-H23 = system: NCI-H23
NCI-H460 = system: NCI-H460
OVCAR-4 = system: OVCAR-4
OVCAR-5 = system: OVCAR-5
SF-539 = system: SF-539
SK-MEL-5 = system: SK-MEL-5
SN12C = system: SN12C
UACC-257 = system: UACC-257
UACC-62 = system: UACC-62
SNB-75 = system: SNB-75

SMILES | GI50 (A498) | GI50 (BT-549) | GI50 (COLO 205) | GI50 (EKVX) | GI50 (HCT-116) | GI50 (Hs-578T) | GI50 (IGROV-1) | GI50 (KM12) | GI50 (M14) | GI50 (MDA-MB-231) | GI50 (NCI-H23) | GI50 (NCI-H460) | GI50 (OVCAR-4) | GI50 (OVCAR-5) | GI50 (SF-539) | GI50 (SK-MEL-5) | GI50 (SN12C) | GI50 (UACC-257) | GI50 (UACC-62) | GI50 (SNB-75)
CC(=O)Nc1cc2cc(NS(=O)(=O)c3ccc(Cl)c(Cl)c3)ccc2oc1=O | 20 µM (inactive) | 49.1 µM (inactive) | 25.5 µM (inactive) | 68.5 µM (inactive) | 28.2 µM (inactive) | 22.4 µM (inactive) | 75.9 µM (inactive) | 25.1 µM (inactive) | 64.1 µM (inactive) | 17.2 µM (inactive) | > 100 µM (inactive) | 37.8 µM (inactive) | 30.3 µM (inactive) | > 100 µM (inactive) | 25.1 µM (inactive) | 28.1 µM (inactive) | 25.8 µM (inactive) | > 100 µM (inactive) | 24.4 µM (inactive) | –
COc1ccc(C2=CC(C(C)=C(C(N)=O)C(N)=O)C=C(c3ccc(Br)cc3)C2)c(OC)c1 (configuration not stated) | > 100 µM (inactive) | > 100 µM (inactive) | > 100 µM (inactive) | 44.2 µM (inactive) | > 100 µM (inactive) | 63.1 µM (inactive) | 94.6 µM (inactive) | > 100 µM (inactive) | > 100 µM (inactive) | > 100 µM (inactive) | > 100 µM (inactive) | > 100 µM (inactive) | > 100 µM (inactive) | > 100 µM (inactive) | – | > 100 µM (inactive) | > 100 µM (inactive) | > 100 µM (inactive) | > 100 µM (inactive) | 66.1 µM (inactive)
COc1cc(/C=C2/Oc3c(OC)cccc3C2=O)ccc1O | 94 µM (inactive) | > 100 µM (inactive) | 45.8 µM (inactive) | 46.9 µM (inactive) | 76.9 µM (inactive) | > 100 µM (inactive) | 64.6 µM (inactive) | 88.5 µM (inactive) | 30.8 µM (inactive) | > 100 µM (inactive) | > 100 µM (inactive) | 32.4 µM (inactive) | > 100 µM (inactive) | > 100 µM (inactive) | – | 34.8 µM (inactive) | > 100 µM (inactive) | > 100 µM (inactive) | > 100 µM (inactive) | 41.8 µM (inactive)
O=C(OCc1ccc([N+](=O)[O-])cc1)N1c2ccccc2[C@@]23O[C@]24CCC[C@H]3C#C/C=C\C#C[C@H]14 | > 100 µM (inactive) | > 100 µM (inactive) | 65.6 µM (inactive) | > 100 µM (inactive) | > 100 µM (inactive) | 58.9 µM (inactive) | > 100 µM (inactive) | > 100 µM (inactive) | > 100 µM (inactive) | > 100 µM (inactive) | > 100 µM (inactive) | 1.17 µM (inactive) | > 100 µM (inactive) | > 100 µM (inactive) | > 100 µM (inactive) | > 100 µM (inactive) | > 100 µM (inactive) | > 100 µM (inactive) | > 100 µM (inactive) | –
Cc1ccc(S(=O)(=O)Oc2nc3ccccc3nc2OS(=O)(=O)c2ccc(C)cc2)cc1 | > 100 µM (inactive) | > 100 µM (inactive) | > 100 µM (inactive) | > 100 µM (inactive) | > 100 µM (inactive) | > 100 µM (inactive) | > 100 µM (inactive) | > 100 µM (inactive) | 33.7 µM (inactive) | > 100 µM (inactive) | > 100 µM (inactive) | > 100 µM (inactive) | – | > 100 µM (inactive) | > 100 µM (inactive) | 28.5 µM (inactive) | > 100 µM (inactive) | > 100 µM (inactive) | > 100 µM (inactive) | > 100 µM (inactive)
Nc1nc2c(C(=O)O)c3ccc([N+](=O)[O-])cc3c(=O)n2c2ccccc12 | 43.7 µM (inactive) | 27.9 µM (inactive) | 34.8 µM (inactive) | 27.9 µM (inactive) | 16.9 µM (inactive) | 23.8 µM (inactive) | 26.9 µM (inactive) | 25.8 µM (inactive) | 21.4 µM (inactive) | 24.9 µM (inactive) | 22.6 µM (inactive) | 30.1 µM (inactive) | 31 µM (inactive) | 31 µM (inactive) | – | 24.7 µM (inactive) | 18 µM (inactive) | – | 28.1 µM (inactive) | 3.44 µM (inactive)
O=[N+]([O-])c1ccc2c(c1)Sc1ccccc1N2 | 14.1 µM (inactive) | > 100 µM (inactive) | 32.9 µM (inactive) | 11.4 µM (inactive) | 9.57 µM (inactive) | 17.2 µM (inactive) | 17.7 µM (inactive) | > 100 µM (inactive) | – | 46.1 µM (inactive) | 7.35 µM (inactive) | 22.8 µM (inactive) | > 100 µM (inactive) | > 100 µM (inactive) | > 100 µM (inactive) | 9.33 µM (inactive) | > 100 µM (inactive) | > 100 µM (inactive) | – | 26.6 µM (inactive)
COc1cc(O)c2c(=O)c3ccccc3n(C)c2c1 | 90.4 µM (inactive) | 52.2 µM (inactive) | > 100 µM (inactive) | 0.555 µM (active) | 10.2 µM (inactive) | 13.4 µM (inactive) | > 100 µM (inactive) | > 100 µM (inactive) | > 100 µM (inactive) | 71.3 µM (inactive) | > 100 µM (inactive) | 4.48 µM (inactive) | 89.3 µM (inactive) | > 100 µM (inactive) | 28.4 µM (inactive) | 4.66 µM (inactive) | > 100 µM (inactive) | > 100 µM (inactive) | 24.6 µM (inactive) | –
CCCc1cn2c(/C=N/NC(=N)N)c(-c3cccc([N+](=O)[O-])c3)nc2s1 | 17.3 µM (inactive) | 1.57 µM (inactive) | 1.88 µM (inactive) | – | 2.27 µM (inactive) | 2.68 µM (inactive) | 1.92 µM (inactive) | 1.76 µM (inactive) | 2.02 µM (inactive) | 1.47 µM (inactive) | 1.78 µM (inactive) | 2.22 µM (inactive) | 1.47 µM (inactive) | 1.81 µM (inactive) | 1.69 µM (inactive) | 1.98 µM (inactive) | 1.21 µM (inactive) | 1.71 µM (inactive) | 1.61 µM (inactive) | 1.56 µM (inactive)
CC(=O)NC1CCC(NC(=O)OC(C)(C)C)C(NC(=O)OC(C)(C)C)C1 (configuration not stated) | > 100 µM (inactive) | > 100 µM (inactive) | > 100 µM (inactive) | – | > 100 µM (inactive) | > 100 µM (inactive) | > 100 µM (inactive) | > 100 µM (inactive) | > 100 µM (inactive) | > 100 µM (inactive) | > 100 µM (inactive) | > 100 µM (inactive) | > 100 µM (inactive) | > 100 µM (inactive) | > 100 µM (inactive) | > 100 µM (inactive) | > 100 µM (inactive) | > 100 µM (inactive) | > 100 µM (inactive) | > 100 µM (inactive)
COC(=O)/C=c1/c2ccccc2n2nc3ccccc3c12 | 26.2 µM (inactive) | > 100 µM (inactive) | 27.6 µM (inactive) | > 100 µM (inactive) | 22.8 µM (inactive) | 52 µM (inactive) | > 100 µM (inactive) | 27.5 µM (inactive) | > 100 µM (inactive) | 16.4 µM (inactive) | 66.5 µM (inactive) | 43.9 µM (inactive) | 23 µM (inactive) | > 100 µM (inactive) | 26.6 µM (inactive) | 31.6 µM (inactive) | 66.8 µM (inactive) | 80.9 µM (inactive) | 70.8 µM (inactive) | –
